According to patent publication US20230233569A1 (Revolution Medicines, Inc., priority 2020, published 2023):
pIC50: −log10 of the molar value. Like-named read-outs stand apart in the source and are kept apart here.

Experiments:
Capan-1 (K-Ras G12V) = assay: CellTiter-Glo cell viability assay, 5-day treatment; format: cell-based; settings: Homo sapiens, CAPAN-1, 120 h, 5-day treatment; read-out: Capan-1 Cell Viability assay data (K-Ras G12V, IC50)
In short: (§1)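 Luminescence read-out after 5 days of compound exposure, with plates first brought to room temperature for roughly 30 minutes. Values are percent of averaged DMSO wells, fitted by four-parameter logistic regression.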

NCI-H358 (K-Ras G12C) = assay: as above; format: cell-based; settings: Homo sapiens, NCI-H358, 120 h, 5-day treatment; read-out: H358 Cell Viability assay data (K-Ras G12C, IC50)
In short: as §1

KRAS G12C = KRAS G12C (Homo sapiens, UniProt P01116+P62937, G12C); assay: Disruption of BRAF RBD interaction with Ras (FRET / MOA assay, with Cyclophilin A); format: biochemical
Chain of KRAS G12C (P01116 1-169 isoform P01116-2 G12C): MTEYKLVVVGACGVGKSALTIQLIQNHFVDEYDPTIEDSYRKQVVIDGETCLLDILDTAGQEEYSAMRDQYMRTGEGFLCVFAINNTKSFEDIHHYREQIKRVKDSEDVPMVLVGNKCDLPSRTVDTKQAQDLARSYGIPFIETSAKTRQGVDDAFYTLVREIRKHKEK
Chain of KRAS G12C (P62937 whole entry): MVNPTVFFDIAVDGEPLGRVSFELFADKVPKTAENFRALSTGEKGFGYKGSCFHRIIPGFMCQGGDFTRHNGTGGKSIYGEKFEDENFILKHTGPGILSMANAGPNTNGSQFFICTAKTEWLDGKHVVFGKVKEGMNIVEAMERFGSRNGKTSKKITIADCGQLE
In short: (§2)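 Compound-driven ternary complex formation between nucleotide-loaded K-Ras and Cyclophilin A was measured as loss of BRAF RBD binding. Compounds (10-point 3-fold series, top 30 μM final) were incubated 3 h at 25 °C, then anti-His Eu-W1024 (10 nM) and anti-GST allophycocyanin (50 nM) added for 1.5 h. IC50 was taken from the TR-FRET ratio decrease versus DMSO.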

KRAS G12D = KRAS G12D (Homo sapiens, UniProt P01116+P62937, G12D); assay: as above; format: biochemical
Chain of KRAS G12D (P01116 1-169 isoform P01116-2 G12D limits assumed): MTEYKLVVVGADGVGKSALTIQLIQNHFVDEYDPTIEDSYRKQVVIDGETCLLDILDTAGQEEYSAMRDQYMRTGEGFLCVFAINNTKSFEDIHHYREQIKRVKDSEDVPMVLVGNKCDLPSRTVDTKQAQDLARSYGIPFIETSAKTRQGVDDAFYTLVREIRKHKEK
Chain of KRAS G12D (P62937 whole entry): as the sequence (P62937 whole entry) above
In short: as §2

KRAS G12S = KRAS G12S (Homo sapiens, UniProt P01116+P62937, G12S); assay: as above; format: biochemical
Chain of KRAS G12S (P01116 1-169 isoform P01116-2 G12S limits assumed): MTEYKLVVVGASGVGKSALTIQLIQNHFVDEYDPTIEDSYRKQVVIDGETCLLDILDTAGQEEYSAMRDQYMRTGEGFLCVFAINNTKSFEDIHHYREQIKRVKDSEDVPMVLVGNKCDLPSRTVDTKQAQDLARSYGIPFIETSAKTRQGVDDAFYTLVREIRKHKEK
Chain of KRAS G12S (P62937 whole entry): as the sequence (P62937 whole entry) above
In short: as §2

KRAS G12V = KRAS G12V (Homo sapiens, UniProt P01116+P62937, G12V); assay: as above; format: biochemical
Chain of KRAS G12V (P01116 1-169 isoform P01116-2 G12V limits assumed): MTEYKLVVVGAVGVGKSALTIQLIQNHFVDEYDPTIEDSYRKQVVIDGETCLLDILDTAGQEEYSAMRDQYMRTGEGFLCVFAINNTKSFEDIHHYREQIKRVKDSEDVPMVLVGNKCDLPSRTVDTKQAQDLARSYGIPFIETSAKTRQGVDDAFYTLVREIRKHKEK
Chain of KRAS G12V (P62937 whole entry): as the sequence (P62937 whole entry) above
In short: as §2

KRAS G13C = KRAS G13C (Homo sapiens, UniProt P01116+P62937, G13C); assay: as above; format: biochemical
Chain of KRAS G13C (P01116 1-169 isoform P01116-2 G13C): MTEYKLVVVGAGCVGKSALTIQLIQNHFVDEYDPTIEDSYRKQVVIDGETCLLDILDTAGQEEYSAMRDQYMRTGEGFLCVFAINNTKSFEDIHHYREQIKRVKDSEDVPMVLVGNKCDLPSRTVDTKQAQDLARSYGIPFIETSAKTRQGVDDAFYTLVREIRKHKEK
Chain of KRAS G13C (P62937 whole entry): as the sequence (P62937 whole entry) above
In short: as §2

KRAS G13D = KRAS G13D (Homo sapiens, UniProt P01116+P62937, G13D); assay: as above; format: biochemical
Chain of KRAS G13D (P01116 1-169 isoform P01116-2 G13D limits assumed): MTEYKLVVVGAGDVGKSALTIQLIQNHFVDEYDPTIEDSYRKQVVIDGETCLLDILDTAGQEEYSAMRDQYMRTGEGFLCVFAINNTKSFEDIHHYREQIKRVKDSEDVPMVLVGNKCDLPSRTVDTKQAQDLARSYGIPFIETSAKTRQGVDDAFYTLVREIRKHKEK
Chain of KRAS G13D (P62937 whole entry): as the sequence (P62937 whole entry) above
In short: as §2

KRAS WT = KRAS WT (Homo sapiens, UniProt P01116+P62937); assay: as above; format: biochemical
Chain of KRAS WT (P01116 1-169 isoform P01116-2 limits assumed): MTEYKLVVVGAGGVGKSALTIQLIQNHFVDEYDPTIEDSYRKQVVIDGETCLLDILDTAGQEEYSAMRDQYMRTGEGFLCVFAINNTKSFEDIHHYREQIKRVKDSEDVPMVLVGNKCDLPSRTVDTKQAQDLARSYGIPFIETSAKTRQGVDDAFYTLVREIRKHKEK
Chain of KRAS WT (P62937 whole entry): as the sequence (P62937 whole entry) above
In short: as §2

NRAS G12C = NRAS G12C (Homo sapiens, UniProt P01111+P62937, G12C); assay: as above; format: biochemical
Chain of NRAS G12C (P01111 whole entry G12C): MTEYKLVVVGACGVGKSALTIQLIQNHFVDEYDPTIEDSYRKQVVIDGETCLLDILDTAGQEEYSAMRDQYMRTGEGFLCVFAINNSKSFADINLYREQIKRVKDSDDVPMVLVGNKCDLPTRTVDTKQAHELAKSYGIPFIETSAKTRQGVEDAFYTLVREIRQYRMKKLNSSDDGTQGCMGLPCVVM
Chain of NRAS G12C (P62937 whole entry): as the sequence (P62937 whole entry) above

[1] = read-out: KRAS G12C FRET data, IC50
[2] = read-out: KRAS G12D FRET data, IC50
[3] = read-out: KRAS G12S FRET data, IC50
[4] = KRAS G12V, read-out: KRAS G12V FRET data IC50
[5] = read-out: KRAS G13C FRET data, IC50
[6] = KRAS G13D, read-out: KRAS G13D FRET data IC50
[7] = KRAS WT, read-out: KRAS WT FRET data IC50
[8] = NRAS G12C, read-out: NRAS G12C FRET data IC50

Structure (SMILES) | pIC50 (NCI-H358 (K-Ras G12C)) | pIC50 (KRAS G12C; [1]) | pIC50 (KRAS G12D; [2]) | pIC50 (KRAS G12S; [3]) | pIC50 (KRAS G12V; [4]) | pIC50 (KRAS G13C; [5]) | pIC50 (KRAS G13D; [6]) | pIC50 (KRAS WT; [7]) | pIC50 (NRAS G12C; [8]) | pIC50 (Capan-1 (K-Ras G12V)) | pIC50 (KRAS G12C; KRAS G12C FRET data, IC50) | pIC50 (KRAS G12D; KRAS G12D FRET data, IC50) | pIC50 (KRAS G12S; KRAS G12S FRET data, IC50) | pIC50 (KRAS G12V; KRAS G12V FRET data IC50, KRAS G12V) | pIC50 (KRAS G13C; KRAS G13C FRET data, IC50) | pIC50 (KRAS G13D; KRAS G13D FRET data IC50, KRAS G13D) | pIC50 (KRAS WT; KRAS WT FRET data IC50, KRAS WT) | pIC50 (NRAS G12C; NRAS G12C FRET data IC50, NRAS G12C)
CCn1c(-c2cccnc2[C@H](C)OC)c2c3cc(ccc31)-c1csc(n1)C[C@H](NC(=O)[C@H](C(C)C)N(C)C(=O)[C@H]1CCCO1)C(=O)N1CCC[C@H](N1)C(=O)OCC(C)(C)C2 [Example A238] | 6.00 to 7.00 | 5.00 to 6.00 | < 5.00 | 5.00 to 6.00 | 5.00 to 6.00 | 5.00 to 6.00 | 5.00 to 6.00 | 5.00 to 6.00 | 5.00 to 6.00 | 6.00 to 7.00 | – | – | – | – | – | – | – | –
CCN1C[C@@H](C(=O)N(C)[C@H](C(=O)N[C@H]2Cc3cc(O)cc(c3)-c3ccc4c(c3)c(c(-c3cnccc3COC)n4CC)CC(C)(C)COC(=O)[C@@H]3CCCN(N3)C2=O)C(C)C)CC1=O [Example A262] | 5.00 to 6.00 | – | – | – | – | – | – | – | – | 5.00 to 6.00 | 7.00 to 8.00 | 5.00 to 6.00 | 6.00 to 7.00 | 6.00 to 7.00 | 6.00 to 7.00 | 6.00 to 7.00 | 6.00 to 7.00 | 6.00 to 7.00
CCn1c(-c2cccnc2[C@H](C)OC)c2c3cc(ccc31)-c1cc(O)cc(c1)C[C@H](NC(=O)C(C1CC1)C1CC1)C(=O)N1CCC[C@H](N1)C(=O)OCC(C)(C)C2 [Example A184] | 6.00 to 7.00 | 6.00 to 7.00 | 5.00 to 6.00 | 6.00 to 7.00 | 6.00 to 7.00 | 7.00 to 8.00 | 6.00 to 7.00 | 6.00 to 7.00 | 6.00 to 7.00 | 5.00 to 6.00 | – | – | – | – | – | – | – | –
CCn1c(-c2cccnc2[C@H](C)OC)c2c3cc(ccc31)-c1cc(O)cc(c1)C[C@H](NC(=O)[C@H](C(C)C)N(C)C(=O)[C@@H]1OC[C@@H]3CCC[C@@H]31)C(=O)N1CCC[C@H](N1)C(=O)OCC(C)(C)C2 [Example A407] | 6.00 to 7.00 | 7.00 to 8.00 | 6.00 to 7.00 | 7.00 to 8.00 | 7.00 to 8.00 | 7.00 to 8.00 | 7.00 to 8.00 | 7.00 to 8.00 | 7.00 to 8.00 | 6.00 to 7.00 | – | – | – | – | – | – | – | –
CCn1c(-c2cccnc2[C@H](C)OC)c2c3cc(ccc31)-c1cc(O)cc(c1)C[C@H](NC(=O)[C@H](C(C)C)N(C)C(=O)[C@H]1CCN(C)C1)C(=O)N1CCC[C@H](N1)C(=O)OCC(C)(C)C2 [Example A100] | 6.00 to 7.00 | 7.00 to 8.00 | 7.00 to 8.00 | 7.00 to 8.00 | 6.00 to 7.00 | 7.00 to 8.00 | 7.00 to 8.00 | 7.00 to 8.00 | 7.00 to 8.00 | 5.00 to 6.00 | – | – | – | – | – | – | – | –

Now from value to compound, other results behind:

pIC50 (NCI-H358 (K-Ras G12C)) | pIC50 (KRAS G12C; [1]) | pIC50 (KRAS G12D; [2]) | pIC50 (KRAS G12S; [3]) | pIC50 (KRAS G12V; [4]) | pIC50 (KRAS G13C; [5]) | pIC50 (KRAS G13D; [6]) | pIC50 (KRAS WT; [7]) | pIC50 (NRAS G12C; [8]) | Structure (SMILES) | pIC50 (Capan-1 (K-Ras G12V)) | pIC50 (KRAS G12C; KRAS G12C FRET data, IC50) | pIC50 (KRAS G12D; KRAS G12D FRET data, IC50) | pIC50 (KRAS G12S; KRAS G12S FRET data, IC50) | pIC50 (KRAS G12V; KRAS G12V FRET data IC50, KRAS G12V) | pIC50 (KRAS G13C; KRAS G13C FRET data, IC50) | pIC50 (KRAS G13D; KRAS G13D FRET data IC50, KRAS G13D) | pIC50 (KRAS WT; KRAS WT FRET data IC50, KRAS WT) | pIC50 (NRAS G12C; NRAS G12C FRET data IC50, NRAS G12C)
7.00 to 8.00 | 7.00 to 8.00 | 7.00 to 8.00 | 7.00 to 8.00 | 6.00 to 7.00 | 7.00 to 8.00 | 7.00 to 8.00 | 7.00 to 8.00 | 7.00 to 8.00 | CCn1c(-c2cccnc2[C@H](C)OC)c2c3cc(ccc31)-c1cc(O)cc(c1)C[C@H](NC(=O)[C@H](C(C)C)N(C)C(=O)[C@H]1CCC[C@H]1N)C(=O)N1CCC[C@H](N1)C(=O)OCC(C)(C)C2 (atropisomer, axis not shown) [Example A131] | 6.00 to 7.00 | – | – | – | – | – | – | – | –
7.00 to 8.00 | 7.00 to 8.00 | 6.00 to 7.00 | 6.00 to 7.00 | 7.00 to 8.00 | 7.00 to 8.00 | 6.00 to 7.00 | 6.00 to 7.00 | 7.00 to 8.00 | CCn1c(-c2cccnc2[C@H](C)OC)c2c3cc(ccc31)-c1cc(O)cc(c1)C[C@H](NC(=O)[C@H](C(C)C)N(C)C(=O)[C@H]1CCN(C(=O)OC(C)(C)C)C1)C(=O)N1CCC[C@H](N1)C(=O)OCC(C)(C)C2 [Example A233] | 7.00 to 8.00 | – | – | – | – | – | – | – | –
7.00 to 8.00 | 6.00 to 7.00 | 6.00 to 7.00 | 6.00 to 7.00 | 6.00 to 7.00 | 6.00 to 7.00 | 6.00 to 7.00 | 6.00 to 7.00 | 7.00 to 8.00 | CCn1c(-c2cccnc2[C@H](C)OC)c2c3cc(ccc31)-c1csc(n1)C[C@H](NC(=O)[C@H](C(C)C)N(C)C(=O)N1C[C@H]3CN(C)C[C@H]3C1)C(=O)N1CCC[C@H](N1)C(=O)OCC(C)(C)C2 [Example A313] | 7.00 to 8.00 | – | – | – | – | – | – | – | –
